Article PMC6079014, “Calcium is an essential cofactor for metal efflux by the ferroportin transporter family” (Nature Communications, 2018)
Where “and” joins values, the source holds several entries; their conditions need not be identical. Identical values can stand only once.

Legend:
[1] = biological target: T1, mouse Fpn (Fpn-C2) (Mus musculus, UniProt Q9JHI9, DEL251-290/DEL401-449); assay: Isothermal titration calorimetry, thermostabilized mouse Fpn construct Fpn-C2; type: binding
T1 construct: generated from full-length mouse Fpn (UniProt: Q9JHI9); GFP (C); made in house; host or cells: Sf9 insect cells (baculovirus)
T1 sequence (Q9JHI9 with tags, fused parts or gaps DEL251-290/DEL401-449): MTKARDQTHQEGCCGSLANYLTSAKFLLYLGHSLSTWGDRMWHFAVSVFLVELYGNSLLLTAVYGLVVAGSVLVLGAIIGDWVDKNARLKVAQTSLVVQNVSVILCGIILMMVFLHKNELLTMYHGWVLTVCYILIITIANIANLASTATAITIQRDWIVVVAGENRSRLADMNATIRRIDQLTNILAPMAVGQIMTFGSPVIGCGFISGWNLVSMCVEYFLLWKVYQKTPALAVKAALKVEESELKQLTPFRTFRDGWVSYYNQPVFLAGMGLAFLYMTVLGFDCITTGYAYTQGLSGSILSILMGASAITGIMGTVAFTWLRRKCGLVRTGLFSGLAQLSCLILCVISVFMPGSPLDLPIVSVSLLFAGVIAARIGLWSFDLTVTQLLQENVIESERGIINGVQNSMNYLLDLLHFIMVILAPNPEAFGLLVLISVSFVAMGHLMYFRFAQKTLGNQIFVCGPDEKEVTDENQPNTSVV
Excerpt: To obtain a purified mammalian Fpn protein conducive for biophysical studies, we generated a protein construct with an increased thermal stability (Deshpande et al., 2018). In brief, the construct (Fpn-C2) was generated from full-length mouse Fpn (UniProt: Q9JHI9 [https://www.uniprot.org/uniprot/Q9JHI9]) by deleting two-loop regions (residues 251–290 and 401–449), followed by an overlapping PCR incorporating the E219A mutation to generate Fpn-C2-E219A. The genes were subsequently cloned with a C-terminal GFP fusion into a baculovirus transfer vector (pFastBac1; Thermo Fisher Scientific) and the proteins were expressed using the Bac-to-Bac Baculovirus and Sf9 cells (Thermo Fisher Scientific) expression method according to the manufacturer’s protocol (Thermo Fisher Scientific). For large scale expression of the protein, 6L Sf9 cells (2 × 10^6 cells/ml) were infected with virus at an optimal multiplicity of infection (MOI) of 2.5 in Insect-XPRESS™ Protein-free Insect Cell Medium with L-glutamine (Lonza) and incubated at 27 °C with shaking at 130 rpm. The cells were spun down 48 h post-infection at 1500 × g for 10 min and the pellet stored at −20 °C until further use.
For Fpn-C2 and Fpn-C2-E219A purification (Deshpande et al., 2018), Sf9 cells were thawed at room temperature with the addition of 2 μl Benzonase (250 units/μL, Sigma-Aldrich), 1 mM MgSO4, 0.2 mM PMSF, and lysed by a single pass through cooled EmulsiFlex-C3 homogenizer (Avestin). All subsequent steps were performed at 4 °C. Membranes were harvested by centrifugation at 106,000 × g for 1 h, and pellets resuspended in Buffer A. The protein was subsequently purified as BbFpn, but with the addition of a second wash on the Ni-NTA column with three column volumes of 25 mM imidazole pH 8, 300 mM NaCl, and 0.03% DDM, and with 0.03% DDM instead of LMNG in the elution and SEC purification. The SEC eluted protein was concentrated to ~10 mg/ml as determined by the BCA assay (Thermo Fisher Scientific) method and stored at −80 °C until further use.
Protein samples were purified as above and diluted to 0.03 mM (1.5 mg/ml) for ITC experiments. The buffer used for ITC was 20 mM Tris pH 8, 50 mM NaCl, and 0.004% LMNG. The buffer was degassed in vacuum (2 h) and pretreated with Chelex-100 (Bio-Rad) to remove residual calcium and/or metal ions bound with moderate affinity. This was done by first washing the Chelex-100 beads with water and then running the dialysis buffer through the beads in a gravity flow column. The samples were subsequently dialyzed overnight against their respective gel filtration buffers. ITC measurements were obtained by using a MicroCal iTC 200 calorimeter (GE Healthcare) and MicroCal PEAQ-ITC (Malvern Instruments) at 20 °C. For calcium and strontium binding measurements, a 2 mM solution was prepared in the protein buffer using a standard 1 M stock solution. […]. For MgCl2 and KCl measurements, a 2–5 mM solution was prepared in the respective buffer.
In each experiment, the protein solution was loaded into the sample cell, and the ligand solution was loaded in the syringe. […] To obtain the effective heat of binding, the heat of dilution, measured by injecting the ligand solution alone into buffer, was subtracted prior to data analysis. The data were fitted using the ‘one binding site’ model using the MicroCal PEAQ-ITC Analysis Software (Malvern Instruments), and the apparent molar reaction […] (ΔH°), entropy (ΔS°), dissociation constant (Kd), and stoichiometry of binding (N) were determined. […]

[2] = biological target: T2, human Fpn (Homo sapiens, UniProt Q9NP59); assay: Radiotracer metal efflux assay in Xenopus oocytes expressing human Fpn; type: cell-based; conditions: 2 mM extracellular Ca2+ vs 0 mM Ca2+ plus 1 mM EGTA; 50 nl of 50 µM 65Zn injected
T2 construct: expressed in transfected cells; host or cells: Xenopus laevis oocytes injected with Fpn RNA
T2 sequence (Q9NP59 1-571): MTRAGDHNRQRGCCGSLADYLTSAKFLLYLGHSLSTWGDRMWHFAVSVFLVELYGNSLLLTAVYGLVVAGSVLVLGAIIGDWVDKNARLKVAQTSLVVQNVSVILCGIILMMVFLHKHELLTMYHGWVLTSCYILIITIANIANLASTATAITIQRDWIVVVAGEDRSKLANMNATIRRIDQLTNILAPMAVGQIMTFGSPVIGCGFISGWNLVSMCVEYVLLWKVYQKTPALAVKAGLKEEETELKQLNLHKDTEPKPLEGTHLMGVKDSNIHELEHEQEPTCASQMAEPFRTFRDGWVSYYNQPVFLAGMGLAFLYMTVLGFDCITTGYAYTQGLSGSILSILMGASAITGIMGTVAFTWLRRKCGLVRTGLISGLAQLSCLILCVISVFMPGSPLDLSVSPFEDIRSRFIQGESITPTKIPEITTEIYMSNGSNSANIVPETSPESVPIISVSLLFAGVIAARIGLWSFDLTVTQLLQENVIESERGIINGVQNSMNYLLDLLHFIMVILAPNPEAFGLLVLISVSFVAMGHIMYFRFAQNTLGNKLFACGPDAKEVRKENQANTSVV

[3] = Supplementary Fig. 7a, one experiment

[Ca+2] [Ca^2+, calcium]
-TΔS, ITC [1, 3]: -9.95 kcal/mol | N (sites), ITC [1, 3]: 0.804 ± 4.8e-2 | ΔG, ITC [1, 3]: -7.47 kcal/mol | ΔH, ITC [1, 3]: 2.49 ± 0.210 kcal/mol | Kd ([1]; thermostabilized mouse Fpn-C2, read-out: Kd (ITC)): ~3000 nM and 2700 nM | Effect of extracellular Ca2+ on Fpn-mediated 65Zn efflux [2]: activated
